Laboratory results: US9987282B2, “Small molecule inhibitors of influenza A RNA-dependent RNA polymerase” (Nant Holdings IP, LLC, priority 2011, dated 2018)

Experiments:
[1] = system: cell death-activated reporter construct; test: Counter screen using a cell death-activated reporter construct (constitutive gene expression); conditions: for observed toxicity or efficacy in antiviral and counterscreen assays: antiviral reporter assay and counterscreen, tested up to 50 uM
[2] = target: influenza A RNA-dependent RNA polymerase (RdRP) (Influenza A virus, UniProt P03428+P03431+P03433)
[3] = system: influenza A/Puerto Rico/8/34 (H1N1) virus; test: In vitro viral propagation in MDCK cells, read by chicken red blood cell hemagglutination assay; assay type: cell-based; conditions: MDCK cells pre-incubated with compound; supernatants after 18-20 hour incubation
[4] = system: influenza A; assay type: cell-based
[5] = system: H3N2 serotype A/Aichi/2/68; test: In vitro viral propagation in MDCK cells, read by hemagglutination assay; assay type: cell-based, influenza A/Aichi/2/68 (H3N2); conditions: in vitro infection
[6] = system: influenza A/WS/1933 (H1N1); test: as above; assay type: cell-based; conditions: in vitro infection
[7] = system: influenza A/Puerto Rico/8/34; test: In vivo survival study in infected Balb/C mice; conditions: day 7 post-infection, 2×LD50 challenge
Experimental: In Vivo Survival Studies: Groups of 5 Balb/C mice ([…]) were weighed prior to the start of study and injected intravenously at the base of the tail with formulations containing A0435 at doses of 3.17, 1, or 0 mg/kg in phosphate buffered saline containing 3% w/v mouse serum albumin. Four hours later, these mice were challenged intranasally with 2×LD50 of influenza A/Puerto Rico/8/34 under anesthesia. Identical doses of A0435 were administered 24 and 48 hours after the initial dose administration and animal weights were monitored daily. Surviving animals were defined as those who maintained 70% or more of their starting weight.

[8] = system: primary renal proximal tubule epithelial cells (RPTEC)
[9] = system: liver-derived HepG2 cells

| SMILES | observed toxicity or efficacy in antiviral and counterscreen assays [1] | further results |
| --- | --- | --- |
| COc1cc(OC)cc(-c2cc3nc(C)cc(NCC(C)c4ccccc4)n3n2)c1 (centres unmarked) [A0525, 2-(3,5-dimethoxyphenyl)-5-methyl-N-(2-phenylpropyl)pyrazolo[1,5-a]pyrimidin-7-amine] | >50 µM (no observed toxicity or efficacy in either assay tested) | – |
| CCc1c(C)nc2cc(-c3ccc(OC)c(OC)c3)nn2c1NCCc1ccccc1C [A0439] | – | toxicity in the reporter assay [2]: increased toxicity at higher doses due to precipitation; concentration showing significant antiviral activity (hemagglutination assay) [3]: > 7.5 µM |
| COc1ccc(-c2cc3nc(-c4ccccc4)cc(NCc4ccccc4C)n3n2)cc1OC [A0528, 2-(3,4-dimethoxyphenyl)-N-(2-methylbenzyl)-5-phenylpyrazolo[1,5-a]pyrimidin-7-amine] | >50 µM (no observed toxicity or efficacy in either assay tested) | – |
| COc1ccc(-c2cc3nc(C)c(C)c(N4CCCC4)n3n2)cc1OC [A0443, 2-(3,4-dimethoxyphenyl)-5,6-dimethyl-7-(pyrrolidin-1-yl)pyrazolo[1,5-a]pyrimidine] | >50 µM (no observed toxicity or efficacy in either assay tested) | – |
| COc1ccc(-c2c(C)nn3c(N4CCc5ccccc5C4)cc(C)nc23)cc1OC [A0550, 2-(3-(3,4-dimethoxyphenyl)-2,5-dimethylpyrazolo[1,5-a]pyrimidin-7-yl)-1,2,3,4-tetrahydroisoquinoline] | >50 µM (no observed toxicity or efficacy in either assay tested) | – |
| COc1ccc(-c2cc3nc(C)cc(NCc4ccc5c(c4)OCO5)n3n2)cc1 [A0530, N-(benzo[d][1,3]dioxol-5-ylmethyl)-2-(4-methoxyphenyl)-5-methylpyrazolo[1,5-a]pyrimidin-7-amine] | >50 µM (no observed toxicity or efficacy in either assay tested) | – |
| COc1ccc(-c2c(C)nn3c(NCC(C)c4ccccc4)cc(C)nc23)cc1OC (centres unmarked) [A0549, 3-(3,4-dimethoxyphenyl)-2,5-dimethyl-N-(2-phenylpropyl)pyrazolo[1,5-a]pyrimidin-7-amine] | >50 µM (no observed toxicity or efficacy in either assay tested) | – |
| CCc1c(C)nc2cc(-c3ccc(OC)c(OC)c3)nn2c1NCc1cc(OC)ccc1OC [A0526, N-(2,5-dimethoxybenzyl)-2-(3,4-dimethoxyphenyl)-6-ethyl-5-methylpyrazolo[1,5-a]pyrimidin-7-amine] | >50 µM (no observed toxicity or efficacy in either assay tested) | – |
| CCc1c(C)nc2cc(-c3ccc(OC)c(OC)c3)nn2c1NCCc1ccc(OC)c(OC)c1 [A0438, N-(3,4-dimethoxyphenethyl)-2-(3,4-dimethoxyphenyl)-6-ethyl-5-methylpyrazolo[1,5-a]pyrimidin-7-amine] | >10 uM (toxic to both antiviral and counterscreen at 50 uM) | – |
| CCc1c(C)nc2cc(-c3ccc(OC)c(OC)c3)nn2c1NCCc1ccc(F)cc1 [A0440, 2-(3,4-dimethoxyphenyl)-6-ethyl-N-(4-fluorophenethyl)-5-methylpyrazolo[1,5-a]pyrimidin-7-amine] | >50 µM (no observed toxicity or efficacy in either assay tested) | – |
| COc1ccc(-c2cc3c(=O)[nH]nc(SCc4ccc5c(c4)OCO5)n3n2)cc1OC [A0551, 7-(benzo[d][1,3]dioxol-5-ylmethylthio)-2-(3,4-dimethoxyphenyl)pyrazolo [1,5-d][1,2,4]triazin-4(5H)-one] | >50 µM (no observed toxicity or efficacy in either assay tested) | – |
| COc1ccc(-c2cc3nc4c(c(NCc5ccccc5F)n3n2)CCCC4)cc1 [A0529, N-(2-fluorobenzyl)-2-(4-methoxyphenyl)-5,6,7,8-tetrahydropyrazolo[5,1-b]quinazolin-9-amine] | >50 µM (no observed toxicity or efficacy in either assay tested) | – |
| CCc1c(C)nc2cc(-c3cc(OC)cc(OC)c3)nn2c1NCCc1ccccc1 [A0527, 2-(3,5-dimethoxyphenyl)-6-ethyl-5-methyl-N-phenethylpyrazolo[1,5-a]pyrimidin-7-amine] | >50 µM (no observed toxicity or efficacy in either assay tested) | – |
| Fc1ccc(-c2cc3nc4c(c(NCCc5ccccn5)n3n2)CCCC4)cc1 [A0441, 2-(4-fluorophenyl)-N-(2-(pyridin-2-yl)ethyl)-5,6,7,8-tetrahydropyrazolo[5,1-b]quinazolin-9-amine] | >10 uM (toxic to both antiviral and counterscreen at 50 uM) | – |
| Clc1ccc(-c2cc3nc4c(c(NCCc5ccccn5)n3n2)CCCC4)cc1 [A0442, 2-(4-chlorophenyl)-N-(2-(pyridin-2-yl)ethyl)-5,6,7,8-tetrahydropyrazolo[5,1-b]quinazolin-9-amine] | >10 uM (toxic to both antiviral and counterscreen at 50 uM) | – |
| CCOc1ccc(-c2cc3c(SCc4cccc(C)c4)nccn3n2)cc1 [A0552, 2-(4-ethoxyphenyl)-4-(3-methylbenzylthio)pyrazolo [1,5-a]pyrazine] | >50 µM (no observed toxicity or efficacy in either assay tested) | – |
| CCc1c(C)nc2cc(-c3ccc(OC)c(OC)c3)nn2c1NCCc1ccccn1 [A0435] | – | cytopathic effects in infected cells [4]: little to no signs of the cytopathic effects; inhibitory impact on the level of constitutive gene expression in the counter-screen assay ([1]; dose titration): no visible inhibitory impact; concentration showing significant antiviral activity (hemagglutination assay) [3]: > 4 µM; inhibition of virus [5]: significantly inhibited; inhibition of virus [6]: significantly inhibited; animals surviving infection ([7]; 1 mg/kg intravenous): 2/5; animals surviving infection ([7]; 3.17 mg/kg intravenous): 3/5; tolerability in cells [8]: well-tolerated; tolerability in cells [9]: well-tolerated |
| Cc1cc(NC(CO)C(O)c2ccccc2)n2nc(-c3cccc(F)c3)cc2n1 (centres unmarked) [A0531, 2-(2-(3-fluorophenyl)-5-methylpyrazolo[1,5-a]pyrimidin-7-ylamino)-1-phenylpropane-1,3-diol] | >50 µM (no observed toxicity or efficacy in either assay tested) | – |
| CCc1c(C)nc2cc(-c3cc(C)on3)nn2c1NCCc1ccccn1 [A0445, 6-ethyl-5-methyl-2-(5-methylisoxazol-3-yl)-N-(2-(pyridin-2-yl)ethyl)pyrazolo[1,5-a]pyrimidin-7-amine] | >50 µM (no observed toxicity or efficacy in either assay tested) | – |
| Cc1cc(NCC(O)c2cccc(O)c2)n2nc(-c3cccc(F)c3)cc2n1 (centres unmarked) [A0532, 3-(2-(2-(3-fluorophenyl)-5-methylpyrazolo[1,5-a]pyrimidin-7-ylamino)-1-hydroxyethyl)phenol] | >50 µM (no observed toxicity or efficacy in either assay tested) | – |
| COc1ccc(-c2cc3nc4c(c(NCCc5cccnc5)n3n2)CCC4)cc1OC [A0444, 2-(3,4-dimethoxyphenyl)-N-(2-(pyridin-3-yl)ethyl)-6,7-dihydro-5H-cyclopenta[d]pyrazolo[1,5-a]pyrimidin-8-amine] | >10 uM (toxic to both antiviral and counterscreen at 50 uM) | – |
| COc1ccc(-c2cc3nccc(NCc4ccccc4OC)n3n2)cc1 [A0547, N-(2-methoxybenzyl)-2-(4-methoxyphenyl)pyrazolo[1,5-a]pyrimidin-7-amine] | >50 µM (no observed toxicity or efficacy in either assay tested) | – |
| COc1ccc(-c2cc3c(=O)[nH]nc(SCc4ccccc4Cl)n3n2)cc1OC [A0553, 7-(2-chlorobenzylthio)-2-(3,4-dimethoxyphenyl)pyrazolo [1,5-d][1,2,4]triazin-4(5H)-one] | >50 µM (no observed toxicity or efficacy in either assay tested) | – |
| COc1ccc(-c2cc3nc(C)cc(NCc4ccccc4)n3n2)cc1 [A0548, N-benzyl-2-(4-methoxyphenyl)-5-methylpyrazolo[1,5-a]pyrimidin-7-amine] | >50 µM (no observed toxicity or efficacy in either assay tested) | – |
| CCc1c(C)nc2cc(-c3ccc(F)cc3)nn2c1NCCc1ccccn1 [A0436, 6-ethyl-2-(4-fluorophenyl)-5-methyl-N-(2-(pyridin-2-yl)ethyl)pyrazolo[1,5-a]pyrimidin-7-amine] | >10 uM (toxic to both antiviral and counterscreen at 50 uM) | – |
| Cc1ccc(-c2cc3nc4c(c(NCCc5ccccn5)n3n2)CCC4)cc1 [A0437, N-(2-(pyridin-2-yl)ethyl)-2-p-tolyl-6,7-dihydro-5H-cyclopenta[d]pyrazolo[1,5-a]pyrimidin-8-amine] | >50 µM (no observed toxicity or efficacy in either assay tested) | – |
